Source: the NIST ThermoML archive (doi:10.1016/j.fluid.2017.07.002)
“And” between values parts separate entries of the source, which are not always exact repeats. Identical values can stand only once. ± gives the expanded uncertainty stated by the source.

Conditions: Liquid, Closed cell (Static) method

FC(F)(F)C(F)(F)C(F)(F)F [octafluoropropane]
vapor or sublimation pressure (223.21 K): 53.1 ± 1.9 kPa
vapor or sublimation pressure (272.76 K): 408.18 ± 2 kPa

FC(F)F [trifluoromethane]
vapor or sublimation pressure (173.86 K): 34.35 ± 0.58 kPa
vapor or sublimation pressure (177.11 K): 41.46 ± 0.77 kPa
vapor or sublimation pressure (183.19 K): 62.33 ± 0.9 kPa
vapor or sublimation pressure (183.2 K): 62.29 ± 0.92 kPa
vapor or sublimation pressure (193.19 K): 113.55 ± 3.3 kPa
vapor or sublimation pressure (228.83 K): 600.35 ± 3.2 kPa
vapor or sublimation pressure (233.16 K): 707.03 ± 6.9 kPa
vapor or sublimation pressure (273.25 K): 2502.8 ± 13 kPa

CC [ethane]
vapor or sublimation pressure (173.63 K): 53.57 ± 0.85 kPa
vapor or sublimation pressure (177.24 K): 66.42 ± 1.1 kPa
vapor or sublimation pressure (183.28 K): 94.31 ± 1.1 kPa
vapor or sublimation pressure (228.82 K): 673.93 ± 3.5 kPa

C=C(F)C(F)(F)F [2,3,3,3-tetrafluoro-1-propene]
vapor or sublimation pressure (193.26 K): 5.46 ± 0.38 kPa
vapor or sublimation pressure (193.3 K): 5.69 ± 0.38 kPa
vapor or sublimation pressure (223 K): 37.74 ± 0.42 kPa
vapor or sublimation pressure (223.08 K): 37.41 ± 1.1 kPa
vapor or sublimation pressure (223.11 K): 37.48 ± 1.1 kPa
vapor or sublimation pressure (233.02 K): 61.64 ± 0.61 kPa
vapor or sublimation pressure (233.04 K): 62.24 ± 1.3 kPa
vapor or sublimation pressure (272.69 K): 310.8 ± 1.5 kPa
vapor or sublimation pressure (272.75 K): 310.85 ± 1.5 kPa and 310.76 ± 1.5 kPa
vapor or sublimation pressure (272.78 K): 311.18 ± 1.5 kPa
vapor or sublimation pressure (272.8 K): 311.8 ± 1.5 kPa
vapor or sublimation pressure (272.81 K): 311.46 ± 1.5 kPa

FC(F)(F)F [tetrafluoromethane]
vapor or sublimation pressure (153.23 K): 171.92 ± 5.7 kPa
vapor or sublimation pressure (193.43 K): 1205.3 ± 6.8 kPa
